The results in this text go back to paper PMC11003481, “Synthesis, biological evaluation, and computational studies of N-benzyl pyridinium–curcumin derivatives as potent AChE inhibitors with antioxidant activity” (Journal of Enzyme Inhibition and Medicinal Chemistry, 2023).

The structures appear in SMILES notation.

Test [1] in a line: ABTS radical cation decolorisation antioxidant assay. The method, then:
The antioxidant activity was determined using a radical cation (ABTS^.+) decolorisation assay, as described by Xiao et al.[21] with a few modifications. The assay used a BioTek Epoch 2 microplate spectrophotometer (Agilent, USA) with clear, flat-bottom 96-well plates. The 7 mmol/L ABTS^.+ stock solution was prepared by dissolving 96.02 mg ABTS in acetic acid buffer (pH 4.5) and to a final volume of 25 ml, which was kept in the dark at 0–4 °C. A 2.45 mmol/L potassium persulfate (K2S2O8) stock solution was prepared by dissolving 66.24 mg K2S2O8 in acetic acid buffer solution with pH 4.5, and then diluted to 100 ml and kept in the dark at 0–4 °C. The ABTS working solution was prepared by mixing similar quantities of 7 mmol/L ABTS and 2.45 mmol/L K2S2O8. This solution was stored in a dark cabinet for 16 h before use, when it was diluted with distilled water to obtain an absorbance of 0.70 at 734 nm. In a clear, flat-bottom 96-well plate, 200 μL of ABTS working solution and 10.0 μL sample solution at different concentrations (0.0312–0.5 mg/mL) were mixed well and incubated in the dark for 7 min before the absorbance was measured at 734 nm using a microplate reader. A blank was run for each assay, and all measurements were performed after 7 min. The ABTS scavenging capacity of inhibitors was compared with that of trolox and α-tocopherol. […]

The target in a further test is eeAChE (Electrophorus electricus, UniProt O42275). Description: biochemical. The settings on record: for Ki: from slopes of Lineweaver-Burk plots versus inhibitor concentration, substrate ATCh, read-out: Ki ± SEM eeAChE. The test is classed as biochemical. The method, then: The slopes of the Lineweaver-Burk reciprocal plots against the concentrations of the compound (inhibitor) were plotted to obtain the Ki values for the prepared compounds (Table 1). The value at which the line intersects the x-axis is -Ki.
Chain of eeAChE (O42275 24-633): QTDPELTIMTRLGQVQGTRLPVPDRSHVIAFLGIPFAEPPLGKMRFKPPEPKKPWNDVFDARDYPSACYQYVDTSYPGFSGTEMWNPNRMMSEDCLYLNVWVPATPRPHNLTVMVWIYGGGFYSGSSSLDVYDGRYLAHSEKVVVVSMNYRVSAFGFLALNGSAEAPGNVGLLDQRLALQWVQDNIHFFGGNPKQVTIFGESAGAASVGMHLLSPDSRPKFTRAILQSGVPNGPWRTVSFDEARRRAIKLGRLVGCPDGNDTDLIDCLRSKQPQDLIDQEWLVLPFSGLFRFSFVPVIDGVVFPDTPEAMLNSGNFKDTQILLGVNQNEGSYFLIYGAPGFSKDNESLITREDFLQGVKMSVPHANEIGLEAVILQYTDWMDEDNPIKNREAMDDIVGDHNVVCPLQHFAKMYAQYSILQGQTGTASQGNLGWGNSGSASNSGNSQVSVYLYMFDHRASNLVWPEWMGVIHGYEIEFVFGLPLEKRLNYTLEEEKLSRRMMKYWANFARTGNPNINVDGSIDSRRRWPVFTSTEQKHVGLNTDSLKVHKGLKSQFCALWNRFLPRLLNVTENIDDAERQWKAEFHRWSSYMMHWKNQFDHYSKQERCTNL
The assay was performed in triplicate using different inhibitor concentrations. […] The assay was carried out in clear, flat-bottom 96-well plates, to which 5 µL distilled water was added to all wells of columns 2–3, rows B-F. Then, 5 µL of the lowest concentration of inhibitor solution was added to the wells of columns 4–5, 5 µL of the median concentration of inhibitor solution was added to the wells of columns 6–7, and 5 µL of the highest concentration of inhibitor solution was added to the wells of columns 8–9. Next, 275 μL enzyme solution was added to the wells, and the plates were incubated for 4 min. Then, 10 μL 2.5 mM DTNB was added to the wells, followed by 10 μL of 32, 16, 8, 4, or 2 mM ATCh solutions to initiate the reactions. The plates were placed in a microplate reader for direct kinetic measurements.
The inhibition constant (Ki) for each inhibitor was calculated by averaging the ATCh hydrolysis rates from three independent experiments. Using GraphPad Prism 8 software, nonlinear regression was used to calculate the Km and Vmax values of the Michaelis-Menten kinetics by plotting [substrate] versus velocity. For the Lineweaver-Burk plots, linear regression was used to plot [1/ATCh] versus […]. Finally, the Ki values were obtained by plotting the slopes against [inhibitor] [20].

For test [2], the target named is acetylcholinesterase (eeAChE, from Electrophorus electricus) (Electrophorus electricus, UniProt O42275). The experiment in a line: biochemical. The settings on record: for Selectivity Index (SI) (AChE): Selectivity ratio [IC50(BChE)/IC50(AChE)]; for IC50: eeAChE, mean ± SEM of three independent experiments, duplicate samples, read-out: IC50 ± SEM AChE. The method, then: (§1) The AChE and BChE inhibitory activity assays were performed using a BioTek Epoch 2 microplate spectrophotometer in clear, flat-bottom 96-well plates. […] To each well, 295 µL phosphate buffer pH 8.0, 10 µL enzyme solution (AChE/BChE), and 10 µL target compound solutions were added together and allowed to stand for 4 min at room temperature. Then, 10 µL of 0.01 M solution freshly prepared Ellman’s reagent 5,5′-dithiobis(2-nitrobenzoic acid) (DTNB) was added to each well. The reaction in the wells was started by the addition of 2 µL of 0.075 M solution freshly prepared substrate (ATCh (acetylthiocholine iodide)/BTCh (S-butyrylthiocholine iodide)) solution. The solution was mixed immediately and incubated for 2:30 min for AChE or for 5 min for BChE inside the microplate reader at 26 °C. […] The IC50 values were calculated graphically by nonlinear regression analysis of inhibition curves that were obtained by plotting the logarithm of the inhibitor concentrations versus the percentage of inhibition (log(inhibitor) vs. normalised response) using GraphPad Prism 8 software (See Supplementary Information for details).
Chain of acetylcholinesterase (eeAChE, from Electrophorus electricus) (O42275 24-633): as above

Test [3] addresses T1, butyrylcholinesterase (eqBChE, from equine serum) (Equus caballus, UniProt P81908).
T1 construct: butyrylcholinesterase (eqBChE, from equine serum); from tissue; host or cells: equine serum
The experiment in a line: biochemical. The settings on record: mean ± SEM of three independent experiments, duplicate samples, read-out: IC50 ± SEM BChE. The method, then: as §1

As usually defined, the Ki is the equilibrium dissociation constant of an inhibitor or competing ligand from its target. In general, IC50 refers to the concentration at which inhibition is half-maximal.

T1 sequence (P81908 whole entry): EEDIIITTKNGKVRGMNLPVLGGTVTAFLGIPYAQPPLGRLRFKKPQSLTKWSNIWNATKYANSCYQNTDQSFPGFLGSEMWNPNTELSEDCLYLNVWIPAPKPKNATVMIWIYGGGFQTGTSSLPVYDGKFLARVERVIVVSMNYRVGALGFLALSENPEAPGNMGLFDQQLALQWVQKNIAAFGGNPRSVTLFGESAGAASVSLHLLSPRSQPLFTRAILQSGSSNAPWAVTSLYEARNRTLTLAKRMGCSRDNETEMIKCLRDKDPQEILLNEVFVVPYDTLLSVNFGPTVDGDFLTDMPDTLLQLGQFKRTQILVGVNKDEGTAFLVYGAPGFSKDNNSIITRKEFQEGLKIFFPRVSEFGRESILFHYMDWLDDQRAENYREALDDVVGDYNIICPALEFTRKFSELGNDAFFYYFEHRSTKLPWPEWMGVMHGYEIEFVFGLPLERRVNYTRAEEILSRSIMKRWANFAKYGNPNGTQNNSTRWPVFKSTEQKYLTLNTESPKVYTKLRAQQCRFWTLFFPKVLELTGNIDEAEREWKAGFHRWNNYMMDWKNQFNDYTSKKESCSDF

For the compound `COc1cc(/C=C/C(=O)/C=C/c2ccc[n+](Cc3ccc(F)cc3)c2)ccc1O` [8 g, 1–(4-Fluorobenzyl)-3-(1E,4E)-5–(4-hydroxy-3-methoxyphenyl)-3-oxopenta-1,4-dien-1-yl)pyridin-1-ium bromide], the “ABTS Inhibition %” value worked out at 6.1 ± 0.71% in test [1] (0.0312 mg/mL), 13.7 ± 0.52% in test [1] (0.0625 mg/mL), 24.7 ± 0.51% in test [1] (0.125 mg/mL) and 39.5 ± 0.38% in test [1] (0.25 mg/mL). For the same compound, on eeAChE, the Ki came to 10 ± 0.025 nM. Further, the “Selectivity Index (SI) (AChE)” value in test [2] is 79. The IC50 is 16 ± 0.24 nM in test [2] and 1200 ± 97 nM in test [3].
Consider `COc1cc(/C=C/C(=O)/C=C/c2ccc[n+](Cc3ccccc3)c2)ccc1O` [Compound 8f, 1-Benzyl-3-(1E,4E)-5–(4-hydroxy-3-methoxyphenyl)-3-oxopenta-1,4-dien-1-yl)pyridin-1-ium bromide], for which the “ABTS Inhibition %” value in test [1] (0.0312 mg/mL) was found to be 7.7 ± 0.97%; in test [1] (0.0625 mg/mL), 15.8 ± 0.18%; in test [1] (0.125 mg/mL) it was 25.4 ± 0.57%; in test [1] (0.25 mg/mL), 39.3 ± 0.23%. Besides, the inhibitory constant (Ki) at eeAChE is 16 ± 0.022 nM. For the same compound, the concentration for half-maximal inhibition (IC50) in test [2] came out at 17 ± 0.17 nM; in test [3], 3500 ± 95 nM.
With `O=C(/C=C/c1ccccc1)/C=C/c1cc[n+](Cc2ccccc2)cc1` [Compound 7a, 1-Benzyl-4-(1E,4E)-3-oxo-5-phenylpenta-1,4-dien-1-yl)pyridin-1-ium bromide], the “ABTS Inhibition %” value in test [1] (0.0312 mg/mL) came out at 1.4 ± 0.56%; in test [1] (0.0625 mg/mL), 1.5 ± 0.30%; in test [1] (0.125 mg/mL) it was 1.7 ± 0.68%; in test [1] (0.25 mg/mL) it was 3.5 ± 0.72%; in test [1] (0.5 mg/mL), 6.4 ± 0.47%. Moreover, the Ki on eeAChE came out at 39 ± 0.011 nM. Also, at eeAChE (slopes and intercepts increased with inhibitor concentration), the “Type of AChE inhibition (Lineweaver-Burk pattern)” value is on record as “mixed-type inhibition”. In addition, the “Selectivity Index (SI) (AChE)” value in test [2] is listed as 19. For the same compound, the IC50 in test [2] is 32 ± 0.22 nM.
`COc1cc(/C=C/C(=O)/C=C/c2cc[n+](Cc3ccc(F)cc3)cc2)ccc1O` [7 g, 1–(4-Fluorobenzyl)-4-(1E,4E)-5–(4-hydroxy-3-methoxyphenyl)-3-oxopenta-1,4-dien-1-yl)pyridin-1-ium bromide]: the “ABTS Inhibition %” value was 6.1 ± 0.82% in test [1] (0.0312 mg/mL); 13.9 ± 0.68% in test [1] (0.0625 mg/mL); 22.5 ± 0.77% in test [1] (0.125 mg/mL); 30.2 ± 1.86% in test [1] (0.25 mg/mL); 52.1 ± 1.58% in test [1] (0.5 mg/mL). Besides, the Ki on eeAChE turned out to be 6 ± 0.031 nM. Further, the “Selectivity Index (SI) (AChE)” value in test [2] is 65. For the same compound, the figures for the IC50 in test [2] and in test [3] were 16 ± 0.18 nM and 1040 ± 81 nM, respectively.
For `O=C(/C=C/c1ccccc1)/C=C/c1cc[n+](Cc2ccc(F)cc2)cc1` [Compound 7b], the “ABTS Inhibition %” value in test [1] (0.0312 mg/mL) was 0.5 ± 0.47%; in test [1] (0.0625 mg/mL) it was 1.4 ± 0.07%; in test [1] (0.125 mg/mL) it was 3.3 ± 0.10%; in test [1] (0.25 mg/mL) it was 6.2 ± 0.50%; in test [1] (0.5 mg/mL), 7.1 ± 0.59%. Also, at eeAChE, the Ki came out at 56 ± 0.016 nM. In test [2], the “Selectivity Index (SI) (AChE)” value is 21. Further, the IC50 in test [2] was found to be 52 ± 0.18 nM; in test [3] it was 1070 ± 80 nM.
